Test results: article PMC12703677, “Discovery of a Copper-Binding Carbohydrate-Binding Module Regulating the Activity of Lytic Polysaccharide Monooxygenases” (Journal of the American Chemical Society, 2025)

Legend:
[1] = target: T1, ScLPMO10C (ScLPMO10C^(MMH)) (Streptomyces coelicolor, UniProt Q9RJY2); experiment: fluorescence stopped-flow, single-turnover reduction of LPMO-Cu(II); type: biochemical; settings: reductant; 50 mM sodium phosphate pH 6.0, 25 °C, anaerobic, no polysaccharide; second-order rate constant only, no Km
T1 construct: gene celS2; full-length mature AA10-linker-CBM2, native signal peptide replaced by SmLPMO10A signal peptide (cleaved; N-terminal His35), E. coli periplasm, untagged, Cu(II)-loaded

[2] = target: T2, ScAA10 (CD; catalytic domain of ScLPMO10C) (Streptomyces coelicolor, UniProt Q9RJY2); experiment: as above; type: biochemical; settings: reductant; 50 mM sodium phosphate pH 6.0, 25 °C, anaerobic, no polysaccharide; second-order rate constant only, no Km
T2 construct: gene celS2; N-terminal His35), SmLPMO10A signal peptide cleaved, E. coli periplasm, untagged, Cu(II)-loaded
T2 sequence (Q9RJY2 entry or part of it): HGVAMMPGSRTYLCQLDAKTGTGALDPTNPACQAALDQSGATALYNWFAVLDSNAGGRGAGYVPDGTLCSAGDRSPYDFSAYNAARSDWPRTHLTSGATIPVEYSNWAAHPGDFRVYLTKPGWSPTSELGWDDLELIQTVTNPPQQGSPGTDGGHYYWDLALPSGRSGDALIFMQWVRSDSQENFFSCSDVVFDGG

T1 sequence (Q9RJY2 entry or part of it): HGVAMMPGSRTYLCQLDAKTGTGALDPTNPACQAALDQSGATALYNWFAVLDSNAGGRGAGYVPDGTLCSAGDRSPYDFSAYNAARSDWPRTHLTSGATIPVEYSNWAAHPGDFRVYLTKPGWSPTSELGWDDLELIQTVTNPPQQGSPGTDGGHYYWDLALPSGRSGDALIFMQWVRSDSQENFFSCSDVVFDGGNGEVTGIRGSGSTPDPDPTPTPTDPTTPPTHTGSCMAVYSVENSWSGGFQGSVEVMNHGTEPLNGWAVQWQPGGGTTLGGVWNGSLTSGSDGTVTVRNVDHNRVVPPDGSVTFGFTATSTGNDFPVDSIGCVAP

## O=C1O[C@H]([C@@H](O)CO)C(O)=C1O [ascorbic acid]
[1]
  k AscA: the two variants exhibited identical reduction rates
[2]
  k AscA: the two variants exhibited identical reduction rates
